# Results taken from patent US20250353848A1, “HETEROCYCLIC PAD4 INHIBITORS” (Celgene Corporation, priority 2022, published 2025).
# Molecular target: T1, hPAD4 enzyme (Homo sapiens, UniProt Q9UM07)
# Assay: RFMS Assay 1 (rapid-fire mass spectrum PAD4 inhibition assay, BAEE substrate)
# Assay type: biochemical
# Settings: 5 nM hPAD4 enzyme, 250 μM BAEE, 30 mins compound and enzyme preincubation at 37° C., 90 min enzyme/substrate reaction
# Protocol: Compounds were solubilized in 100% DMSO to achieve a 10 mM compound concentration. Compound stock solutions were stored at RT. A series of dilutions were prepared in DMSO and mixed 8 times with 20 μL mixing volume. Final top concentration of compound in the assay is 50 μM. Final assay conditions were as follows: • Reaction volume: 26 μl • Assay buffer: 25 mM hepes, pH 7.5, 5 mM NaCl, 1 mM DTT, 0.2 mg/ml BSA, 0.01% CHAPS, 50 μM Calcium, and 5 μM TPEN • Final concentrations: 5 nM hPAD4 enzyme, 250 μM BAEE, and 0.5% DMSO • Total incubation time: 30 mins compound and enzyme preincubation at 37° C., 90 min enzyme/substrate reaction, 30 min reaction with phenyl glyoxal at 37° C. • Stop solution: 40 μl 5% TCA in ACN
# 0.13 μL of compound solution was added to 13 μL of 10 nM PAD4 in assay buffer. After 30 min 13 μl of 500 μM of BAEE was added in 25 mM hepes, pH 7.5, 5 mM NaCl, 1 mM DTT, 0.2 mg/ml BSA, 0.01% CHAPS, 50 µM Calcium, […] was added and the reaction incubated for 90 min at 37° C. The enzymatic reaction was quenched by addition of 15 μl of 6.1N TCA, 100% Final Concentration is 20%, 35 μl of 8.5 mM phenyl glyoxal (final concentration 4 mM) is then added and the reaction is incubated for 30 min at 37° C.
# After 30 minutes the plates are spun down to remove all precipitate. The enzyme reaction was quenched with an equal volume of methanol containing internal standard (modified citrulline). Samples were loaded onto the Rapid Fire RF300 system (Agilent) wherein they were first sipped for 1000 ms and then directly loaded to a C18 separations cartridge using a mixture of acetonitrile containing 0.01% formic acid for 3000 ms desalting. The flow rate of the mobile phase was 1.5 ml/min. Once the samples were eluted from the cartridge, a mobile phase of acetonitrile containing 0.01% formic acid was used to move the samples into the mass spectrometer for 4000 ms at a flow rate of 1.25 ml/min/Sciex AP15500 triple quadrupole mass spectrometer (Applied Biosystems) equipped with ESI was used to analyze the peptidyl citrulline and internal standard ions.
# MRM transition of product and internal standard were monitored at m/z 424.5 to 350.4 and m/z 293 to 247 respectively. The dwell time for each transition was set at 200 ms, and the ESI voltage was used at 5500 with a source temperature of 400° C. Extracted ion peaks for each transition were integrated using the Rapid Fire Integrator software. Peak area of analyte was normalized with internal standard.).
# T1 sequence (Q9UM07 whole entry): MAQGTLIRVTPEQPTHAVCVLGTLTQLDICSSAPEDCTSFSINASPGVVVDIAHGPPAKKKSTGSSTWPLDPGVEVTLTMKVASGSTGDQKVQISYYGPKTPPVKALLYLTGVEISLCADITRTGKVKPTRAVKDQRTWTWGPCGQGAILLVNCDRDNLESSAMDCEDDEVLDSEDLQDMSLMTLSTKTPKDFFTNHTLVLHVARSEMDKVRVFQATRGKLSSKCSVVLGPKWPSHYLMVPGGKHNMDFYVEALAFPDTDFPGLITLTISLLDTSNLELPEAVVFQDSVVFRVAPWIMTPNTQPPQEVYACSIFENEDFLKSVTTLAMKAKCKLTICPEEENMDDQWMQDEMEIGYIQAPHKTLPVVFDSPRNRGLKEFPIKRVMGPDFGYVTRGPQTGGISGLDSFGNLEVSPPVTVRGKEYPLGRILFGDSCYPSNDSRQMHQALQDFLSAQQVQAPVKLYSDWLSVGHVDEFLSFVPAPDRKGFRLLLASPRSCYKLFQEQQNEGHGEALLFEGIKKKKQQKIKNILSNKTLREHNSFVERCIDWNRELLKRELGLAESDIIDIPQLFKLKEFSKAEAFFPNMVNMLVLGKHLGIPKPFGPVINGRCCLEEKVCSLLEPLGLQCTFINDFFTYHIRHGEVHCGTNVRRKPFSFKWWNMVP
row,IC50,Compound
1,101 to 500 nM,"C[C@H](COc1cccc2cc(-c3nc4cc5c(nc4n3C)CCN(C[C@H](N)CF)C5=O)n(CC3CC3)c12)n1cnc(C#N)c1 [Example 91, 1-((R)-1-((2-(7-((S)-2-amino-3-fluoropropyl)-3-methyl-8-oxo-5,6,7,8-tetrahydro-3H-imidazo[4,5-b][1,6]naphthyridin-2-yl)-1-(cyclopropylmethyl)-1H-indol-7-yl)oxy)propan-2-yl)-1H-imidazole-4-carbonitrile]"
2,11 to 100 nM,"Cn1c(-c2cc3cccc(OCCn4cnc(Cl)n4)c3n2CC2CC2)nc2cc3c(nc21)CCN(C[C@H](N)CF)C3=O [Example 92, (S)-7-(2-amino-3-fluoropropyl)-2-(7-(2-(3-chloro-1H-1,2,4-triazol-1-yl)ethoxy)-1-(cyclopropylmethyl)-1H-indol-2-yl)-3-methyl-3,5,6,7-tetrahydro-8H-imidazo[4,5-b][1,6]naphthyridin-8-one]"
3,11 to 100 nM,"Cn1c(-c2cc3cccc(OCCn4ccnc4Cl)c3n2CC2CC2)nc2cc3c(nc21)CCN(C[C@H](N)CF)C3=O [Example 93, (S)-7-(2-amino-3-fluoropropyl)-2-(7-(2-(2-chloro-1H-imidazol-1-yl)ethoxy)-1-(cyclopropylmethyl)-1H-indol-2-yl)-3-methyl-3,5,6,7-tetrahydro-8H-imidazo[4,5-b][1,6]naphthyridin-8-one]"
4,101 to 500 nM,"C[C@H](COc1cccc2cc(-c3nc4cc5c(nc4n3C)CCN(C[C@H](N)CF)C5=O)n(CC3CC3)c12)n1cncc1C#N [Example 94, 1-((R)-1-((2-(7-((S)-2-amino-3-fluoropropyl)-3-methyl-8-oxo-5,6,7,8-tetrahydro-3H-imidazo[4,5-b][1,6]naphthyridin-2-yl)-1-(cyclopropylmethyl)-1H-indol-7-yl)oxy)propan-2-yl)-1H-imidazole-5-carbonitrile]"
5,11 to 100 nM,"Cn1c(-c2cc3cccc(/C=C/Cn4cnc(F)c4)c3n2CC2CC2)nc2cc3c(nc21)CCN(C[C@H](N)CF)C3=O [Example 97, (S,E)-7-(2-amino-3-fluoropropyl)-2-(1-(cyclopropylmethyl)-7-(3-(4-fluoro-1H-imidazol-1-yl)prop-1-en-1-yl)-1H-indol-2-yl)-3-methyl-3,5,6,7-tetrahydro-8H-imidazo[4,5-b][1,6]naphthyridin-8-one]"
6,101 to 500 nM,"Cn1c(-c2cc3cccc(/C=C/Cn4cncc4F)c3n2CC2CC2)nc2cc3c(nc21)CCN(C[C@H](N)CF)C3=O [Example 98, (S,E)-7-(2-amino-3-fluoropropyl)-2-(1-(cyclopropylmethyl)-7-(3-(5-fluoro-1H-imidazol-1-yl)prop-1-en-1-yl)-1H-indol-2-yl)-3-methyl-3,5,6,7-tetrahydro-8H-imidazo[4,5-b][1,6]naphthyridin-8-one]"
7,11 to 100 nM,"Cn1c(-c2cc3cccc(CCCn4cnc(F)c4)c3n2CC2CC2)nc2cc3c(nc21)CCN(C[C@H](N)CF)C3=O [Example 99, (S)-7-(2-amino-3-fluoropropyl)-2-(1-(cyclopropylmethyl)-7-(3-(4-fluoro-1H-imidazol-1-yl)propyl)-1H-indol-2-yl)-3-methyl-3,5,6,7-tetrahydro-8H-imidazo[4,5-b][1,6]naphthyridin-8-one]"

row,Compound,IC50
1,"Cn1c(-c2cc3cccc(NC(=O)Cn4ccnc4)c3n2CC2CC2)nc2cc3c(nc21)CCN(C[C@H](N)CF)C3=O [Example 100, (S)—N-(2-(7-(2-amino-3-fluoropropyl)-3-methyl-8-oxo-5,6,7,8-tetrahydro-3H-imidazo[4,5-b][1,6]naphthyridin-2-yl)-1-(cyclopropylmethyl)-1H-indol-7-yl)-2-(1H-imidazol-1-yl)acetamide]",501 to 1000 nM

# Molecular target: T1, hPAD4 enzyme
# Assay: RFMS Assay 2 (rapid-fire mass spectrum PAD4 inhibition assay, peptide substrate)
# Assay type: biochemical
# Settings: 35 nM recombinant human PAD4, substrate TSTGGRQGSHH, room temperature for 30 minutes; read-out: human PAD4 (hPAD4) IC50, RFMS Assay 2
# Protocol: Stock compounds were dissolved and stored in 100% DMSO. Compound solutions were prepared via serial dilution at 3-fold intervals in DMSO with top compound concentration at […] in each assay. 0.25 μl of compound solution was transferred from the compound plate to the assay plate by using an acoustic dispenser. Final assay conditions: • Total reaction volume: 25 μl • Assay buffer: […] pH 7.4, 200 mM NaCl, 2 mM CaCl2, 5 mM DTT • 35 nM recombinant human PAD4 • 500 µM TSTGGRQGSHH (SEQ ID NO: 1) • 1.2% DMSO • Stop solution: 10% formic acid
# Reaction mixtures were incubated at room temperature for 30 minutes. 10 μl each of the reaction mixtures was then mixed with 40 μl of 10% formic acid in a microtiter plate. The plate was frozen at −80° C. before shipping out on dry ice for RapidFire mass spectroscopy analysis.
# Thawed samples were loaded onto the Rapid Fire 300 system (Agilent) wherein they were first sipped for 250 ms and then loaded onto a Agilent “C” (C18) cartridge using a mobile phase of water containing 0.09% formic acid/0.01% trifluoroacetic acid for 3000 ms desalting flowing at a rate of 1.5 ml/min. Once the samples were loaded and washed, a mobile phase of acetonitrile containing 0.09% formic acid/0.01% trifluoroacetic acid was used to elute the samples directly onto a Sciex API4000 triple quadrupole mass spectrometer for 3000 ms at a flow rate of 1.25 ml/min.
# MRM transitions for substrate and product were monitored in positive ESI mode at m/z=562.3/969.7 and m/z=562.8/541.3 respectively. The dwell time for each transition was set at 100 ms, and the ESI voltage was used at 5500 with a source temperature of 650° C. Extracted ion peaks for each transition were integrated using the Rapid Fire Integrator software.
row,IC50,Compound
1,101 to 500 nM,"COc1cccc2cc(-c3nc4cc5c(nc4n3C)CCN(C[C@H](N)CF)C5=O)n(Cc3oncc3C)c12 [Example 9, (S)-7-(2-amino-3-fluoropropyl)-2-(7-methoxy-1-((4-methylisoxazol-5-yl)methyl)-1H-indol-2-yl)-3-methyl-3,5,6,7-tetrahydro-8H-imidazo[4,5-b][1,6]naphthyridin-8-one]"
2,> 1000 nM,"COc1cccc2cc(-c3nc4cc5c(nc4n3C)CCN(C[C@H](N)CF)C5=O)n(Cc3ncc(C)s3)c12 [Example 10, (S)-7-(2-amino-3-fluoropropyl)-2-(7-methoxy-1-((5-methylthiazol-2-yl)methyl)-1H-indol-2-yl)-3-methyl-3,5,6,7-tetrahydro-8H-imidazo[4,5-b][1,6]naphthyridin-8-one]"
3,501 to 1000 nM,"COc1cccc2cc(-c3nc4cc5c(nc4n3C)CCN(C[C@H](N)CF)C5=O)n(Cc3nc(C)co3)c12 [Example 13, (S)-7-(2-amino-3-fluoropropyl)-2-(7-methoxy-1-((4-methyloxazol-2-yl)methyl)-1H-indol-2-yl)-3-methyl-3,5,6,7-tetrahydro-8H-imidazo[4,5-b][1,6]naphthyridin-8-one]"
4,501 to 1000 nM,"Cc1cccc2cc(-c3nc4cc5c(nc4n3C)CCN(C[C@H](N)CF)C5=O)n(Cc3ccno3)c12 [Example 17, (S)-7-(2-amino-3-fluoropropyl)-2-(1-(isoxazol-5-ylmethyl)-7-methyl-1H-indol-2-yl)-3-methyl-3,5,6,7-tetrahydro-8H-imidazo[4,5-b][1,6]naphthyridin-8-one]"
5,501 to 1000 nM,"COc1ccc2cc(-c3nc4cc5c(nc4n3C)CCN(C[C@H](N)CF)C5=O)n(CC3CC3)c2c1 [Example 18, (S)-7-(2-amino-3-fluoropropyl)-2-(1-(cyclopropylmethyl)-6-methoxy-1H-indol-2-yl)-3-methyl-3,5,6,7-tetrahydro-8H-imidazo[4,5-b][1,6]naphthyridin-8-one]"
6,501 to 1000 nM,"Cn1c(-c2cc3cccc(OCC4CC(=O)NC4(C)C)c3n2CC2CC2)nc2cc3c(nc21)CCN(C[C@H](N)CF)C3=O (stereo partly drawn) [Example 35, 7-((S)-2-amino-3-fluoropropyl)-2-(1-(cyclopropylmethyl)-7-((2,2-dimethyl-5-oxopyrrolidin-3-yl)methoxy)-1H-indol-2-yl)-3-methyl-3,5,6,7-tetrahydro-8H-imidazo[4,5-b][1,6]naphthyridin-8-one]"
7,> 1000 nM,"Cn1c(-c2cc3cccc(OC[C@H]4CCC(=O)NC4)c3n2CC2CC2)nc2cc3c(nc21)CCN(C[C@H](N)CF)C3=O [Example 36, 7-((S)-2-amino-3-fluoropropyl)-2-(1-(cyclopropylmethyl)-7-(((S)-6-oxopiperidin-3-yl)methoxy)-1H-indol-2-yl)-3-methyl-3,5,6,7-tetrahydro-8H-imidazo[4,5-b][1,6]naphthyridin-8-one]"

row,Compound,IC50
1,"CC(Cc1cnco1)Oc1cc(F)cc2cc(-c3nc4cc5c(nc4n3C)CCN(C[C@H](N)CF)C5=O)n(CC3CC3)c12 (single isomer, unassigned) [Example 64]",101 to 500 nM
2,"CC(Cc1cnco1)Oc1cc(F)cc2cc(-c3nc4cc5c(nc4n3C)CCN(C[C@H](N)CF)C5=O)n(CC3CC3)c12 (single isomer, unassigned) [Example 65b]",101 to 500 nM
